This is an account of results in ChEMBL document CHEMBL1145704, “Absolute Configuration of 2,6-Dimethylheptyl Sulfate and Its Distribution in Ascidiacea” (J Nat Prod, 1997).

The LC50 is the concentration that kills 50% of the test population. Read a low LC50 as a more lethal substance.

Data set [1] can be described thus: Toxicity against Artemia salina L EACH. Type of data set: organism-based. The conditions noted are these: in vivo.
A further data set deals with Gambusia affinis. Nature of the data set: Toxicity in Gambusia affinis upto 100 ug/mL by lethality assay. The conditions noted are these: in vivo. It is filed as organism-based.

Consider `CC(C)CCC[C@@H](C)COS(=O)(=O)[O-].[Na+]`, for which the median lethal concentration (LC50) in data set [1] came out at 17.8 µg/mL. Also, the Activity entry in the data set with Gambusia affinis is listed as “Non-toxic”.
